Source: patent publication US11999758B2, “Inhibitors of the YAP/TAZ-TEAD interaction and their use in the treatment of cancer” (INVENTIVA, priority 2018, dated 2024)

Molecular target: T1, YAP-TEAD interaction (Homo sapiens, UniProt P28347)
T1 construct: expressed in transfected cells; host or cells: HEK293 GripTite 293 MSR (Invitrogen R795-07)
Experiment: Cell-based TEAD-GAL4 transactivation assay (luciferase reporter)
Details: HEK293 cells transfected with TEAD1-Gal4, YAP mutant (S127A, S397A) and luciferase reporter, compounds 0.1 μM to 30 μM; for Emax: HEK293, 24 h, read-out: TEAD-GAL4 Transactivation activity Max Act; for IC50 / TEAD-GAL4 Transactivation activity Max Act: 24 h
Protocol: To identify inhibitors of YAP-TEAD interaction, a transient transactivation assay was carried out on HEK293 cell line (HEK293 GripTite™ 293 MSR (Invitrogen R795-07)) using plasmids containing the full length TEAD1 sequences, the full length YAP mutant (S127A, S397A) and a luciferase gene reporter. All expression constructs were performed into a pSG5 backbone plasmid in which the SV40 promoter was replaced by the CMV promoter. The TEAD1 construct was prepared by cloning the full-length human TEAD1 cDNA in fusion with the Gal4 DNA Binding Domain (AA 1-148) into pSG5_CMV to create the TEAD1 (FL)_hum_pSG5Gal4_CMV. The full-length YAP mutant (S127A, S397A) was also cloned into pSG5_CMV to create the YAP (FL)_hum_pSG5_mutS127A_S397A_CMV. The reporter plasmid GAL4(5×RE)_TK(−105/+56)_pGL3-Basic contains 5 copies of the GAL4 responsive element (5′-TCGGAGGACAGTACTCC-3′) upstream of the thymidine kinase (TK) promoter (−105/+56) inserted in a pGL3-Basic vector. To evaluate the selectivity of our compounds in blocking the YAP-TEAD interaction, a counter-screening protein-protein interaction transactivation assay was also established. Briefly, two other expression plasmids, the pBD-P53 which expresses the P53 (AA 72-390) in fusion with Gal4 and the pAD-SV40T which expresses the SV40 large T antigen (AA 84-708,AgT), were created. HEK293 cells were seeded at 5×10^4 cells/well in 96 well plates (assay plates) in DMEM medium containing 4.5 g/L D-glucose, 10% high inactivated (HI) fetal bovine serum 1% Glutamax, 1% non-essential amino acid and 1% sodium pyruvate and 0.5% penicillin/streptomycin at 37° C. in a humidified atmosphere of 8% CO2. After 24 h, transfections were performed using Jet-PEI as transfectant (101B-010 Polyplus Transfection), according to the instructions of the manufacturer (N/P=10) and a ratio YAP/TEAD=10 (per well: 50 ng of YAP(FL), 5 ng of TEAD(FL) and 50 ng of reporter plasmid). Six hours after cell transfection, the plates (‘assay plate’) were washed with 100 μl PBS per well and cells were treated with compounds in semi-log from 0.1 μM to 30 μM or DMSO 0.5% as control in DMEM, 4.5 g/L D-Glucose without phenol red, 0.3% BSA, 1% glutamax, 1% NEAA, 1% sodium pyruvate. 24 h later, the luciferase activity was determined after addition of 100 μl of Steady Glo™ luciferase assay system (Promega E2550) according to the manufacturer's directions. Luciferase activity in cell extracts was measured by reading luminescence using the Envision device.
The cellular response was determined by fitting the concentration response curves using a 3-parameter curve fit equation and determining the concentration that inhibited the luciferase activity by 50%.

T1 sequence (P28347 whole entry): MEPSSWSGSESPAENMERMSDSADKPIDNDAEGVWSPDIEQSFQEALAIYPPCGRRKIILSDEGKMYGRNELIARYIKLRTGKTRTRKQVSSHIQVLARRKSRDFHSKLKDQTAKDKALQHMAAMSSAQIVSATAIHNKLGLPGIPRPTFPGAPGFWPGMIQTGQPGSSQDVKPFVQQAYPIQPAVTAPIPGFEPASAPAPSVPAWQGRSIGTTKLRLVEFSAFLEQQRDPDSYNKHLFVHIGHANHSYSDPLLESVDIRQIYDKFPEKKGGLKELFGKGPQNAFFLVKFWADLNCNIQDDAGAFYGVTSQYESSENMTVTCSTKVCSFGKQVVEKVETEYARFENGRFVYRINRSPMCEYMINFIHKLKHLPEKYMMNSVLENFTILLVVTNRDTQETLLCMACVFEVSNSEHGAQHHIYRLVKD

| Emax [%] | IC50 [µM] | TEAD-GAL4 Transactivation activity Max Act [%] | SMILES |
| --- | --- | --- | --- |
| 77 | 0.43 |  | Cc1csc2c(N3N=C(c4ccc5c(c4)COB5O)CCC3C)ncnc12 (single isomer, unassigned; (+)) [Ex119, (+) 4-[6-(1-hydroxy-3H-2,1-benzoxaborol-5-yl)-3-methyl-4,5-dihydro-3H-pyridazin-2-yl]-7-methyl-thieno[3,2-d]pyrimidine] |
|  | 0.5 | 84 | Cc1csc2c(N3N=C(c4ccc5c(c4)COB5O)CCC3C)ncnc12 (single isomer, unassigned; (-)) [Ex120, (−) 4-[6-(1-hydroxy-3H-2,1-benzoxaborol-5-yl)-3-methyl-4,5-dihydro-3H-pyridazin-2-yl]-7-methyl-thieno[3,2-d]pyrimidine] |
| 93 | 7.27 |  | COc1cc(C2=NN(c3ncnc4c(OC)cccc34)C(C)CC2)ccc1B(O)O (single isomer, unassigned; isomer 1) [Ex124, [2-methoxy-4-[2-(8-methoxyquinazolin-4-yl)-3-methyl-4,5-dihydro-3H-pyridazin-6-yl]phenyl]boronic acid (isomer 1)] |
|  | 3.52 | 86 | COc1cc(C2=NN(c3ncnc4c(OC)cccc34)C(C)CC2)ccc1B(O)O (single isomer, unassigned; isomer 2) [Ex125, [2-methoxy-4-[2-(8-methoxyquinazolin-4-yl)-3-methyl-4,5-dihydro-3H-pyridazin-6-yl]phenyl]boronic acid (isomer 2)] |
| 58 | 0.99 |  | CCN(/N=C/c1ccc(B(O)O)c(OC)c1)c1ncnc2c(C)csc12 [Ex62, [4-[(E)-[ethyl-(7-methylthieno[3,2-d]pyrimidin-4-yl)hydrazono]methyl]-2-methoxy-phenyl]boronic acid] |
| 63 | 0.69 |  | CCN(/N=C/c1ccc(B(O)O)c(OC)c1)c1ncnc2ccsc12 [Ex63, [4-[(E)-[ethyl(thieno[3,2-d]pyrimidin-4-yl)hydrazono]methyl]-2-methoxy-phenyl]boronic acid] |
| 96 | 2.76 |  | CCN(/N=C/c1ccc(B(O)O)c(OC)c1)c1ncnc2ncsc12 [Ex64, [4-[(E)-[ethyl(thiazolo[4,5-d]pyrimidin-7-yl)hydrazono]methyl]-2-methoxy-phenyl]boronic acid] |
| 92 | 1.98 |  | CCN(/N=C/c1ccc(B(O)O)c(OC)c1)c1ncnc2occc12 [Ex65, [4-[(E)-[ethyl(furo[2,3-d]pyrimidin-4-yl)hydrazono]methyl]-2-methoxy-phenyl]boronic acid] |
| 87 | 2.15 |  | CCN(/N=C/c1ccc(B(O)O)c(OC)c1)c1ncnc2c1ccn2C [Ex66, [4-[(E)-[ethyl-(7-methylpyrrolo[2,3-d]pyrimidin-4-yl)hydrazono]methyl]-2-methoxy-phenyl]boronic acid] |
| 89 | 3.82 |  | COc1cc(/C=N/N(CC(C)C)c2ncnc3c(C)csc23)ccc1B(O)O [Ex67, [4-[(E)-[isobutyl-(7-methylthieno[3,2-d]pyrimidin-4-yl)hydrazono]methyl]-2-methoxy-phenyl]boronic acid] |
| 84 | 2.63 |  | COc1cc(/C=N/N(CC(C)C)c2nc(C)nc3ccsc23)ccc1B(O)O [Ex68, [4-[(E)-[isobutyl-(2-methylthieno[3,2-d]pyrimidin-4-yl)hydrazono]methyl]-2-methoxy-phenyl]boronic acid] |
| 92 | 2.34 |  | COc1cc(/C=N/N(CC(C)C)c2ncnc3cc(C)sc23)ccc1B(O)O [Ex69, [4-[(E)-[isobutyl-(6-methylthieno[3,2-d]pyrimidin-4-yl)hydrazono]methyl]-2-methoxy-phenyl]boronic acid] |
| 87 | 1.88 |  | COCCN(/N=C/c1ccc(B(O)O)c(OC)c1)c1ncnc2ccsc12 [Ex70, [2-methoxy-4-[(E)-[2-methoxyethyl(thieno[3,2-d]pyrimidin-4-yl) hydrazono]methyl]phenyl]boronic acid] |
| 85 | 1.86 |  | COc1cc(C2=NN(c3ncnc4ccsc34)C(C)CC2)ccc1B(O)O (stereo not drawn) [Ex72, [2-methoxy-4-(3-methyl-2-thieno[3,2-d]pyrimidin-4-yl-4,5-dihydro-3H-pyridazin-6-yl)phenyl]boronic acid] |
| 88 | 2.24 |  | COc1cc(C2=NN(c3ncnc4c3ccn4C)C(C)CC2)ccc1B(O)O (stereo not drawn) [Ex73, [2-methoxy-4-[3-methyl-2-(7-methylpyrrolo[2,3-d]pyrimidin-4-yl)-4,5-dihydro-3H-pyridazin-6-yl]phenyl]boronic acid] |
| 83 | 2.36 |  | COc1cc(C2=NN(c3ncnc4cc(F)ccc34)CC(C)O2)ccc1B(O)O (stereo not drawn) [Ex74, [4-[4-(7-fluoroquinazolin-4-yl)-6-methyl-5,6-dihydro-1,3,4-oxadiazin-2-yl]-2-methoxy-phenyl]boronic acid] |
| 75 | 2.22 |  | CCN(/N=C/c1ccc2c(c1)COB2O)c1ncnc2cn[nH]c12 [Ex78, N-ethyl-N-[(E)-(1-hydroxy-3H-2,1-benzoxaborol-5-yl)methyleneamino]-1H-pyrazolo[4,3-d]pyrimidin-7-amine] |
| 79 | 1.75 |  | CCN(/N=C/c1ccc2c(c1)COB2O)c1ncnc2cc[nH]c12 [Ex81, N-ethyl-N-[(E)-(1-hydroxy-3H-2,1-benzoxaborol-5-yl)methyleneamino]-5H-pyrrolo[3,2-d]pyrimidin-4-amine] |
| 85 | 1.03 |  | CCCn1ccc2c(N(CC)/N=C/c3ccc4c(c3)COB4O)ncnc21 [Ex84, N-ethyl-N-[(E)-(1-hydroxy-3H-2,1-benzoxaborol-5-yl)methyleneamino]-7-propyl-pyrrolo[2,3-d]pyrimidin-4-amine] |
| 81 | 0.61 |  | CCN(/N=C/c1ccc2c(c1)COB2O)c1ncnc2c1ccn2CC [Ex85, N,7-diethyl-N-[(E)-(1-hydroxy-3H-2,1-benzoxaborol-5-yl)methyleneamino]pyrrolo [2,3-d]pyrimidin-4-amine] |
| 81 | 0.65 |  | CCN(/N=C/c1ccc2c(c1)COB2O)c1ncnc2[nH]ncc12 [Ex86, N-ethyl-N-[(E)-(1-hydroxy-3H-2,1-benzoxaborol-5-yl)methyleneamino]-1H-pyrazolo[3,4-d]pyrimidin-4-amine] |
| 82 | 0.59 |  | CCN(/N=C/c1ccc2c(c1)COB2O)c1ncnc2ncsc12 [Ex87, N-ethyl-N-[(E)-(1-hydroxy-3H-2,1-benzoxaborol-5-yl)methyleneamino]-thiazolo[4,5-d]pyrimidin-7-amine] |
| 80 | 0.63 |  | CCN(/N=C/c1ccc2c(c1)COB2O)c1nc(C)nc2c(C)csc12 [Ex88, N-ethyl-N-[(E)-(1-hydroxy-3H-2,1-benzoxaborol-5-yl)methyleneamino]-2,7-dimethyl-thieno[3,2-d]pyrimidin-4-amine] |
| 85 | 0.82 |  | CCN(/N=C/c1ccc2c(c1)COB2O)c1ncnc2cc(F)ccc12 [Ex89, N-ethyl-7-fluoro-N-[(E)-(1-hydroxy-3H-2,1-benzoxaborol-5-yl)-methyleneamino]quinazolin-4-amine] |
| 83 | 1.26 |  | CCN(/N=C/c1ccc2c(c1)COB2O)c1ncnc2cc(C)sc12 [Ex90, N-ethyl-N-[(E)-(1-hydroxy-3H-2,1-benzoxaborol-5-yl)methyleneamino]-6-methyl-thieno[3,2-d]pyrimidin-4-amine] |
| 85 | 0.64 |  | CCN(/N=C/c1ccc2c(c1)COB2O)c1ncnc2c3c(sc12)CCCC3 [Ex91, N-ethyl-N-[(E)-(1-hydroxy-3H-2,1-benzoxaborol-5-yl)methyleneamino]-6,7,8,9-tetrahydrobenzothiopheno[3,2-d]pyrimidin-4-amine] |
| 80 | 0.71 |  | Cc1csc2c(N(CC(C)C)/N=C/c3ccc4c(c3)COB4O)ncnc12 [Ex93, N-[(E)-(1-hydroxy-3H-2,1-benzoxaborol-5-yl)methyleneamino]-N-isobutyl-7-methyl-thieno[3,2-d]pyrimidin-4-amine] |
